In patent publication US6949579B2, “Aminoindazole derivatives and intermediates, preparation thereof, and pharmaceutical compositions thereof” (Aventis Pharma S.A., priority 2002, dated 2005):

Row | melting point | Compound
1 | 104 °C | CN(C)CCNCC(=O)Nc1n[nH]c2cc(Cl)ccc12 [Example 86, N-(6-chloro-1H-indazol-3-yl)-2-[[2-(dimethylamino)ethyl]amino]acetamide]
2 | 165 °C | CN1CCN(CC(=O)Nc2n[nH]c3cc(Cl)ccc23)CC1
3 | 230 °C | CCCC(=O)Nc1n[nH]c2ccc(C(F)(F)F)cc12 [Example 22, N-[5-(trifluoromethyl)-1H-indazol-3-yl]butanamide]
4 | 220 °C | CCCC(=O)Nc1n[nH]c2c(F)c(F)c(Br)cc12
5 | 170 °C | O=C(CNC1CCCCC1)Nc1n[nH]c2cc(Cl)ccc12 [Example 79, N-(6-chloro-1H-indazol-3-yl)-2-(cyclohexylamino)acetamide]
6 | 158 °C | O=C(CN1CCCCC1)Nc1n[nH]c2c(F)c(F)ccc12 [Example 118, N-(6,7-difluoro-1H-indazol-3-yl)-1-piperidineacetamide]
7 | 168 °C | O=C(CN1CCCC1)Nc1n[nH]c2cc(Cl)ccc12 [Example 85, N-(6-chloro-1H-indazol-3-yl)-1-pyrrolidineacetamide]
8 | 156 °C | O=C(CNCc1ccccc1)Nc1n[nH]c2cc(Cl)ccc12 [Example 80, 2-[(phenylmethyl)amino]-N-(6-chloro-1H-indazol-3-yl)acetamide]
9 | 153 °C | O=C(CN1CCCCC1)Nc1n[nH]c2cc(Cl)ccc12 [Example 76, N-(6-chloro-1H-indazol-3-yl)-1-piperidineacetamide]
10 | 250 °C | CCCC(=O)Nc1n[nH]c2cc(Br)c(Br)cc12 [Example 70, N-[5,6-dibromo-1H-indazol-3-yl]butanamide]
11 | 225 °C | O=C(Nc1n[nH]c2ccc(NS(=O)(=O)c3cccc(F)c3)cc12)c1ccccc1 [Example 38, N-[5-[[(3-fluorophenyl)sulphonyl]amino]-1H-indazol-3-yl]benzamide]
12 | 180 °C | CCCC(=O)Nc1n[nH]c2c(F)c(N3CCOCC3)c(N)cc12 [Example 113, N-(7-fluoro-5-amino-6-morpholino-1H-indazol-3-yl)butanamide]
13 | 250 °C | CCCC(=O)Nc1n[nH]c2c(F)c(N3CCOCC3)c([N+](=O)[O-])cc12 [Example 112, N-(7-fluoro-5-nitro-6-morpholino-1H-indazol-3-yl)butanamide]
14 | 255 °C | CCCC(=O)Nc1n[nH]c2c(F)c(F)c([N+](=O)[O-])cc12 [Example 106, N-(6,7-difluoro-5-nitro-1H-indazol-3-yl)butanamide]
